Test results from patent US11033538B2, “Dosing regimens for the treatment of lysosomal storage diseases using pharmacological chaperones” (Amicus Therapeutics, Inc., priority 2007, dated 2021).
Numbering of substitutions follows the chain as printed. Like-named read-outs stand apart in the source and are kept apart here.

Key:
[1] = in vivo; details: plasma
[2] = Clinical safety and tolerability of 1-Deoxynorjirimycin, single and repeat doses; assay type: in vivo, human
[3] = system: monkeys; details: monkey, in vivo
[4] = system: rats; details: rat, in vivo
[5] = Pharmacokinetics of 1-Deoxynorjirimycin; details: is believed
[6] = system: GCase; test: IFG in a mouse model of GD; assay type: in vivo
Source text: (§1) In the lysosome, when the pharmacological chaperone dissociates from the enzyme, the enzyme can perform its normal function, which is to catalyze the breakdown of glucosylceramide (GlcCer), the GCase substrate.

[7] = system: GCase; test: GCase activity in Gaucher patient-derived fibroblasts, lymphoblasts and macrophages after IFG for 5 days; assay type: cell-based, human; details: lymphoblast and macrophages
Source text: FIGS. 4A, 4B, and 4C. […] FIG. 4A depicts GCase activity in fibroblasts; FIG. 4B depicts GCase activity in lymphoblasts; and FIG. 4C depicts GCase activity in macrophages.

[8] = system: monkeys; test: Nonclinical toxicology studies of IFG, monkeys; assay type: in vivo
Source text: as §1

[9] = system: GCase; test: GCase levels and trafficking in vitro with IFG (fibroblasts of GD patients); assay type: cell-based, human
Source text: as §1

[10] = target: T1, N370S GCase (Homo sapiens, UniProt P04062, N409S); test: Expected N370S GCase accumulation parameters estimated from wild-type PK/PD
T1 sequence (P04062 40-536 N409S): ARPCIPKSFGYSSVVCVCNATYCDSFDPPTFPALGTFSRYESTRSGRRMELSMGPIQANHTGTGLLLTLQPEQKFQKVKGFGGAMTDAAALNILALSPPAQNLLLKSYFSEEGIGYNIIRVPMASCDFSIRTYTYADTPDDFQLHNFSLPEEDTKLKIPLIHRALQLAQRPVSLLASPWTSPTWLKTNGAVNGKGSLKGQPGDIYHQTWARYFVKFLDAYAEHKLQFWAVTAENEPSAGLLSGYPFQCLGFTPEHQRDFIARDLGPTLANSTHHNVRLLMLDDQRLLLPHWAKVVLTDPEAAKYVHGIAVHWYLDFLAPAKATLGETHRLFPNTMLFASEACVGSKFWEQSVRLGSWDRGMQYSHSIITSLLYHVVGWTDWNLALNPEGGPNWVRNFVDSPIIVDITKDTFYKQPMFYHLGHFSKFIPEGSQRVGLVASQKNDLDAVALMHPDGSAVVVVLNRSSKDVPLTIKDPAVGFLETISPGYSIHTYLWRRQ
Source text: For example, the most prevalent mutation in Gaucher disease is N370S. […] Accordingly, the rate of N370S turnover and the dose that will yield the maximum rate of GCase accumulation, can be estimated based on the differences in PK and PD parameters as compared with the wild-type enzyme: […]

[11] = target: T2, GCase (Homo sapiens, UniProt P04062); test: WBC GCase levels in healthy subjects receiving IFG (Phase 1 multiple-dose study); assay type: in vivo
T2 construct: endogenous in cells; host or cells: white blood cells of healthy subjects; healthy human skin fibroblasts
T2 sequence (P04062 40-536): T1 sequence (P04062 40-536 N409S) with S370N
Protocol: (§2) Blood samples were collected for pharmacokinetic analysis before the initial drug administration on Day 1, before the 5th, 6th and 7th doses (on Days 5, 6 and 7) (for Cmin determination), and at the following times after the 1st (Day 1) and 7th (Day 7) doses: 0.5, 1, 1.5, 2, 3, 4, 5, 6, 8, 10, 12, 15, 18, and 24 hours. […] In addition, blood samples were collected for pharmacodynamic measurements, i.e., analysis of WBC GCase levels, before dosing on Day 1, Day 3, Day 5, and Day 7, and at return visits on Day 9, Day 14 and Day 21.

[12] = Phase 1 multiple-dose study of IFG in healthy subjects, plasma pharmacokinetics; assay type: in vivo, human; details: for Cmax / half-life / Tmax: human, plasma
Protocol: as §2

[13] = Example 10, pharmacokinetic/tissue distribution of isofagomine in rats; assay type: in vivo
Protocol: A single dose of 600 mg/kg of isofagomine was administered to rats via PO gavage. The concentration of isofagomine (μM) in plasma, liver, spleen and brain tissue was ascertained at regular time intervals at dosing (t=0) through 48 hours after dosing.

[14] = system: rats; test: Nonclinical toxicology studies of IFG, rats; assay type: in vivo
Source text: as §1

## OC[C@H]1NC[C@H](O)[C@@H](O)[C@@H]1O [1-Deoxynorjirimycin, (2R,3R,4R,5S)-2-(hydroxymethyl) piperidine-3,4,5-triol]
[1]
  half-life: 240 to 480 min
[2]; for 2 weeks
  repeat doses (safe and well tolerated): up to 2 grams per day
[2]; patients receiving drug
  severity of adverse events: mild or moderate in severity
[2]; single doses
  single doses appearing safe and well tolerated: up to 600 mg
[3]
  tolerability in short-term safety studies: well tolerated
[4]
  tolerability in short-term safety studies: well tolerated
[5]
  oral bioavailability: high oral bioavailability

## OC[C@H]1CNC[C@@H](O)[C@@H]1O [IFG, (2R,3R,4R)-5-(hydroxymethyl)-piperidine-3,4-diol]
[6]
  plasma levels of chitinase and IgG: reduces plasma levels of chitinase and immunoglobulin G (IgG)
  tissue GCase activity: increases tissue GCase activity
[7]
  IFG concentration range at which maximum chaperoning (Emax) occurs: 10 to 100 µM
[8]
  safety and tolerability of repeated dosing: generally safe and well tolerated
[9]; fibroblasts of GD patients
  GCase trafficking to the lysosome: increases GCase trafficking to the lysosome in fibroblasts of GD patients
[9]; in vitro
  GCase total cellular enzyme levels: increases GCase total cellular enzyme levels in vitro
[10]
  Daily dose that yields max rate of accumulation during Initial Enzyme Build-Up phase: ≤150 to 300 mg
  Max. rate of enzyme accumulation: ~0.35 Units/day
  Max. rate of enzyme loss: ~−0.17 Units/day
[11]; Wild-type
  Daily dose that yields max rate of accumulation during Initial Enzyme Build-Up phase: ≤75 mg
  Max. rate of enzyme loss: ~−3.5 Units/day
[11]; Wild-type, 1 unit = 1 nmole of 4-MU liberated per mg of total protein per hour
  Max. rate of enzyme accumulation: ~7 Units/day
[11]; healthy subjects
  lowest daily dose that achieved the maximum rate of GCase accumulation over 7 days: about 75 mg
[11]; healthy subjects, 7-day treatment
  maximum increase in GCase enzyme level in white blood cells: approximately 3.5 fold above baseline
[12]; after 7 days of oral administration, 25, 75 or 225 mg daily
  pharmacokinetic behavior: linear with dose
[12]; oral, 25 mg
  Cmax: 310 nM
[12]; oral, 150 mg
  Cmax: 1700 nM
[12]; oral, healthy subjects, multiple-dose study, SEM: 2 hr., read-out: plasma elimination half-life (converted)
  half-life: ~840 min
[12]; oral, read-out: Half-life (converted)
  half-life: 840 min
[12]; oral, read-out: Tmax
  Tmax: 3 h
[12]; healthy subjects, multiple-dose study, 7 days oral, SEM: 0.6 hr., read-out: Mean plasma levels (Tmax) peaked
  Tmax: ~3.4 h
[13]; liver and plasma, single 600 mg/kg PO
  time after which levels fall below the GCASE Ki value: 48 h
[13]; single 600 mg/kg PO gavage, plasma, liver, spleen, brain
  time for all tissues to attain levels exceeding the GCase enhancement EC50: ≤ 15 min
[13]; spleen and brain tissue
  clearance from tissue: slower clearance
[14]
  safety and tolerability of repeated dosing: generally safe and well tolerated
